{"source": "paper PMC5790467", "about": "“Enhanced anti-tumor efficacy and mechanisms associated with docetaxel-piperine combination- in vitro and in vivo investigation using a taxane-resistant prostate cancer model” (Oncotarget, 2017)", "key": {"[1]": {"tested_on": "PC3-TxR tumor xenografts", "assay": "Tumor growth in mice with PC3-TxR (taxane-resistant) tumor xenografts", "assay_type": "in vivo, ICR-NOD/SCID mice", "settings": "TxR tumor xenografts; two weeks after drug administration; DTX 20 mg/kg once a week i.v., PIP 50 mg/kg daily p.o.", "method": "The following experimental protocol was adopted after approval by the Animal Research Ethics Committee at the Chinese University of Hong Kong. PC3 and PC3-TxR cells were cultured in RPMI 1640 medium containing 10% FBS and 1% penicillin-streptomycin in a humidified atmosphere of 5% CO2 at 37°C. PC3 and PC3-TxR cell pellets were re-suspended in serum free RPMI1640 and diluted by Matrigel™ Basement Membrane Matrix (BD Biosciences, Bedford, MA, USA) to the density of 3.33 × 10^6cells/ml. Male ICR-NOD/SCID mice (Laboratory Animal Services Center at the Chinese University of Hong Kong) weighing 25 to 30 g (age 6–8 weeks) was anesthetized with an intraperitoneal injection of a cocktail containing 87 mg/kg ketamine and 8.7 mg/kg xylazine (diluted with saline and the injection volume was about 0.1 ml). The cell suspension was injected subcutaneously to both the left and right flank region. The tumors were allowed to grow for about 2 weeks. Tumor volumes were measured twice per week (tumor volume = [(W^2 × L)/2], where W is the tumor measurement at the widest point, and L is the tumor dimension at the longest point). When the tumors reach about 100 mm^3, treatment was started and the date was designated as Day 0."}, "[2]": {"tested_on": "PC3-TxR cells", "assay": "Cell viability (cytotoxicity) of PC3-TxR cells", "assay_type": "cell-based", "settings": "Homo sapiens, triplicate samples, read-out: IC50, cytotoxicity of PIP on PC3-TxR", "excerpt": "www.impactjournals.com/oncotarget/ Oncotarget, Supplementary Materials 2017\ninvestigation using a taxane-resistant prostate cancer model\nSupplementary Figure 1: Cell viability (measured from triplicate samples) of PC3-TxR cells. (A) The cytotoxicity of PIP\n(1 picture or pasted object on this page, not shown here)"}, "[3]": {"tested_on": "CYPs (hepatic metabolism of DTX)", "assay": "In vitro inhibition of hepatic metabolism of DTX in mouse liver microsomes", "assay_type": "in vitro ADME, ICR mice", "settings": "ICR, pH 7.4, probe DTX (docetaxel) 2 μM", "method": "Livers of ICR-NOD/SCID mice administrated with vehicle control or PIP were collected for the ex vivo metabolism study. In vitro metabolic reactions were performed in blank ICR mice liver. Hepatic microsomes were prepared according to the method of Hill. The system of enzymatic incubation was conducted based on the condition reported by Mooiman et al. with minor modification. […] Drug mixture was pre-incubated with mice liver microsome at 0.5 mg/ml in 50 mM phosphate buffer (pH7.4) containing 2.6 mM of NADP^+, 7.1 mM of glucose-6-phosphate and 6.5 mM of magnesium chloride for 15 min. The reaction was initiated by the addition of glucose-6-phosphate dehydrogenase at 0.8 U/ml. After incubation for 60 min, the reaction was terminated by the addition of 200 µl of ice-cold acetonitrile/methanol (50:50, v/v) containing glibenclamide at 100 ng/ml. The mixture was centrifuged at 13000 rpm for 10 min and the supernatant was injected into LC/MS/MS for analysis."}, "[4]": {"tested_on": "Caco-2 monolayer model", "set-up": "method as in PMID 12130727", "settings": "cited from earlier work"}, "[5]": {"tested_on": "A-549/DDP", "set-up": "method as in PMID 21802927", "settings": "PIP at 50 μM; cited from earlier work"}, "[6]": {"settings": "i.g.; female Fischer rats; cited from earlier work"}}, "note": "Like-named read-outs stand apart in the source and are kept apart here.", "data": [{"smiles": "O=C(/C=C/C=C/c1ccc2c(c1)OCO2)N1CCCCC1", "note": "[PIP, 1-piperoyl piperidine]", "values": [{"measurement": "percentage of tumor size increase", "setting": "[1]", "value": 196, "unit": "%"}, {"measurement": "IC50", "setting": "[2]", "value": 47.3, "unit": "µg/mL"}, {"measurement": "IC50 at 60 min", "setting": "[3]", "value": 37.3, "unit": "µM"}, {"measurement": "IC50", "setting": "[4]; read-out: IC50 of inhibition of the transport of cyclosporine A", "value": 74.1, "unit": "µM"}, {"measurement": "IC50", "setting": "[4]; read-out: IC50 of inhibition of the transport of digoxin", "value": 15.5, "unit": "µM"}, {"measurement": "enhancement of the sensitivity to doxorubicin", "setting": "[5]", "value": 14, "unit": "folds"}, {"measurement": "LD50", "setting": "[6]", "value": 514, "unit": "mg/kg"}]}]}
